Measured values from paper PMC5424146, “Activity-based protein profiling as a robust method for enzyme identification and screening in extremophilic Archaea” (Nature Communications, 2017).

Key:
[1] = target: T1, esterase/lipase Saci_1105 (1105) (Sulfolobus acidocaldarius, UniProt Q4J9S2); experiment: biochemical
T1 construct: full gene under the maltose promoter (pSVAmZ-saci_1105) in S. acidocaldarius esterase double knockout; crude lysate or living cells

[2] = target: T2, acetylesterase Saci_1116 (1116) (Sulfolobus acidocaldarius, UniProt Q4J9R2); experiment: esterase activity, pNP-octanoate hydrolysis at […] nm, lysate of delta […] strain; format: biochemical; conditions: pNP-octanoate 0.5 mM; pH 8.0; 35 °C; pre-incubation 1 h at 60 °C; covalent
T2 construct: full gene under the maltose promoter (pSVA-saci_1116) in the esterase double knockout, or native protein in the delta 1105 strain
T2 sequence (Q4J9R2 1-305): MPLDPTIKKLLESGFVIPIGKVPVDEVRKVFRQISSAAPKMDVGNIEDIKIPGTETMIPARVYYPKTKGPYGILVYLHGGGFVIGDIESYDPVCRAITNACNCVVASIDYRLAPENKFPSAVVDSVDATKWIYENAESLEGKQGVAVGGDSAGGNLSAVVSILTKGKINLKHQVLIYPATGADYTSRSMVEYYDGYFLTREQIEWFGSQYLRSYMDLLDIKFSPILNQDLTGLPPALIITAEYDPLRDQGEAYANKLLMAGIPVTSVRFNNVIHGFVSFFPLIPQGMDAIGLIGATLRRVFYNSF

TM_1022 [3] = target: T3, TM_1022 (Thermotoga maritima, UniProt G4FEX6); experiment: esterase activity, pNP-octanoate hydrolysis, lysate of double knockout expressing TM_[…]; also competitive labelling at […]; format: biochemical; conditions: pNP-octanoate 0.5 mM; pH 8.0; 35 °C; pre-incubation 1 h at 60 °C; covalent
T3 construct: gene with own promoter (about 500 bp upstream; pSVA-p-tm1022) in S. acidocaldarius esterase double knockout
T3 sequence (G4FEX6 1-253): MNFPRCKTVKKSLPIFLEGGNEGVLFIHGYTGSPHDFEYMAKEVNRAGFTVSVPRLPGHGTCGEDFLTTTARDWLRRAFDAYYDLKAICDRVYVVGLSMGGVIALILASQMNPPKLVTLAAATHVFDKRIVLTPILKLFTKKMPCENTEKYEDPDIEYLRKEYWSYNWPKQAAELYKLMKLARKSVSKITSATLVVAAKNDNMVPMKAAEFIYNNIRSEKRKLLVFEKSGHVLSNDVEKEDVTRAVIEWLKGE

TM_1022 [4] = target: T3, TM_1022; experiment: halo on indicator plate, double knockout expressing TM_[…]; format: cell-based; conditions: 1% (v/v) in plate; 78 °C; up to 3 days

T1 sequence (Q4J9S2 1-306): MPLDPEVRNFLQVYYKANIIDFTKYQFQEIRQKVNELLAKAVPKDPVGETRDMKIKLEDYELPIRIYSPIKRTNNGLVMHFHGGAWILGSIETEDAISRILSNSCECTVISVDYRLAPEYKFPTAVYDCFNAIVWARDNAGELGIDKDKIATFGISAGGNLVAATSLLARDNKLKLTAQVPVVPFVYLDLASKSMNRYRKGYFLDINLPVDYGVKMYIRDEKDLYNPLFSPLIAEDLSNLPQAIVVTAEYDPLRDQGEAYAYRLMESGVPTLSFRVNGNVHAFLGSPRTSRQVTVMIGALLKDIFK

SMILES: C#CCNC(=O)OCCOCCOCCOCCP(=O)(OCC)Oc1ccc([N+](=O)[O-])cc1 (centres unmarked) [compound 2, NP≡]
- IC50 [1]: 150 nM

SMILES: CCOP(=O)(OCC)Oc1ccc([N+](=O)[O-])cc1 [paraoxon]
- reduced activity at 250 μM [2]: pre-incubation with paraoxon led in all cases to a significantly reduced esterase activity
- reduced activity at 250 μM (TM_1022 [3]): pre-incubation with paraoxon led in all cases to a significantly reduced esterase activity

SMILES: CCCC(=O)OCC(COC(=O)CCC)OC(=O)CCC [tributyrin]
- halo on indicator plate, double knockout expressing TM_1022 (TM_1022 [4]): For both substrates, a time-dependent formation of a halo could be observed for this culture

SMILES: CCCCCC(=O)OCC(COC(=O)CCCCC)OC(=O)CCCCC [tricaproin]
- halo on indicator plate, double knockout expressing TM_1022 (TM_1022 [4]): the halo for the tricaproin substrate was thereby slightly larger than for tributyrate
